Test results taken from ChEMBL document CHEMBL3875190, “MARK inhibitors: Declaring a No-Go decision on a chemical series based on extensive DMPK experimentation” (Bioorg Med Chem Lett, 2017).

Experiments:
[1] = Partition coefficient, logD of compound at pH 7 by HPLC analysis; assay type: physicochemical; details: octanol/water
[2] = Total plasma clearance in rat; assay type: ADME, cell-free
[3] = Volume of distribution in rat; assay type: ADME; details: in vivo
[4] = Half life in human liver microsomes; assay type: ADME
[5] = Half life in rat liver microsomes; assay type: ADME
[6] = target: MAP/microtubule affinity-regulating kinase 3 (Homo sapiens, UniProt P27448); assay: Inhibition of MARK3 (unknown origin)
[7] = Total plasma clearance in dog; assay type: ADME, cell-free, Canis lupus familiaris
[8] = Half life in dog liver microsomes; assay type: ADME, Canis lupus familiaris
[9] = Drug excretion in bile duct-cannulated rat bile after 8 hrs by chromatographic analysis; assay type: ADME, tissue-based; details: read-out: Drug excretion
[10] = Drug recovery in bile duct-cannulated rat bile after 8 hrs by chromatographic analysis; assay type: ADME, tissue-based; details: read-out: Drug recovery
[11] = Stability in human liver cytosol; assay type: ADME
[12] = Drug excretion in bile duct-cannulated rat urine after 8 hrs by chromatographic analysis; assay type: ADME; details: read-out: Drug excretion
[13] = Stability in rat liver cytosol; assay type: ADME
[14] = Drug recovery in bile duct-cannulated rat urine after 8 hrs by chromatographic analysis; assay type: ADME; details: read-out: Drug recovery
[15] = Drug metabolism in rat hepatocytes assessed as oxidation; assay type: ADME, cell-based, Hepatocyte
[16] = Drug metabolism in rat hepatocytes assessed as glucuronidation; assay type: ADME, cell-based, Hepatocyte
[17] = Drug metabolism in rat liver microsomes assessed as lactam hydrolysis; assay type: ADME
[18] = Drug metabolism in human liver microsomes assessed as lactam hydrolysis; assay type: ADME
[19] = Drug metabolism in rat liver microsomes assessed as oxidative metabolite formation; assay type: ADME
[20] = Drug metabolism in human liver microsomes assessed as oxidative metabolite formation; assay type: ADME

MAP/microtubule affinity-regulating kinase 3, sequence (P27448 whole entry): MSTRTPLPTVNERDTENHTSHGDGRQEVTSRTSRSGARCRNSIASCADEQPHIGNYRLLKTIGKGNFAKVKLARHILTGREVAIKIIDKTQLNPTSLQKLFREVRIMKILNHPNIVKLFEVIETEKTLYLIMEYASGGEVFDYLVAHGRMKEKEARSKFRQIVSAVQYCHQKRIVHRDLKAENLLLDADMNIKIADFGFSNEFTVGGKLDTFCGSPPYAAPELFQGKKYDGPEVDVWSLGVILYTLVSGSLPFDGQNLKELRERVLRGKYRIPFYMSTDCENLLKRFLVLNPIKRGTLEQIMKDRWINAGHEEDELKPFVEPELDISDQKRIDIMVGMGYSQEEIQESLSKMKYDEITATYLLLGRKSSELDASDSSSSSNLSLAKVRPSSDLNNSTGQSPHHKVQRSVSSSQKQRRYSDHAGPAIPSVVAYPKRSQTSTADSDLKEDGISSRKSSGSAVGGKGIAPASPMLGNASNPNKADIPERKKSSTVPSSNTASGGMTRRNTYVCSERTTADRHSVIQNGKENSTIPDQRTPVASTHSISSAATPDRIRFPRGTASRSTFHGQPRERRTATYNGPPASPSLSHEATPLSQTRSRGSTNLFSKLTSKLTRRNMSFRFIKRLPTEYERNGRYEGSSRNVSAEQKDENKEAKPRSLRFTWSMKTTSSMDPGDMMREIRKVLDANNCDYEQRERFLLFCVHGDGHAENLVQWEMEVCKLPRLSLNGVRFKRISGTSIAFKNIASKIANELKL

Row | Structure (SMILES) | logD [1] | clearance [2] | Vd [3] | half-life [5] | IC50 [6] | also measured
1 | CC1(C)C(=O)N(C2CCCCC2)c2nc(Nc3cccnc3)ncc21 | 2.82 | 47 mL/min/kg | 2.8 L/kg |  |  | 
2 | CC(=O)N1CCC(N2C(=O)C(C)(C)c3cnc(Nc4ccc(F)cc4)nc32)CC1 | 2.5 | 37 mL/min/kg | 1.6 L/kg | > 60 min | 2800 nM | half-life [4]: 51 min
3 | CC[C@H](C)N1C(=O)C(C)(C)c2cnc(Nc3ccc(CN4CC(C)OC(C)C4)cc3)nc21 (stereo partly specified) | 3.98 | 269 mL/min/kg | 14 L/kg |  |  | 
4 | CC[C@H](C)N1C(=O)C(C)(C)c2cnc(Nc3ccc(-c4nnc(C)[nH]4)cc3)nc21 | 2.21 |  |  | 50 min | 80 nM | clearance [7]: 10 mL/min/kg; half-life [8]: 80 min
5 | C[C@@H](c1ccc(F)cc1)N1C(=O)C(C)(C)c2cnc(Nc3cccnc3)nc21 | 2.81 | 154 mL/min/kg | 6.8 L/kg |  |  | 
6 | CC[C@H](C)N1C(=O)C(C)(C)c2cnc(Nc3ccc(CNC4CCCOC4)cc3)nc21 (stereo partly specified) | 2.79 | 188 mL/min/kg | 96 L/kg |  |  | 
7 | [3H]c1nc(Nc2cccnc2)nc2c1C(C)(C)C(=O)N2[C@H](C)CC |  |  |  |  |  | dose excreted at 8 h [9]: > 95%; dose excreted at 8 h [10]: 60 to 90%; Stability [11]: Stable; dose excreted at 8 h [12]: > 95%; Stability [13]: Stable; dose excreted at 8 h [14]: 60 to 90%
8 | CC[C@H](C)N1C(=O)C(C)(C)c2cnc(Nc3cccnc3)nc21 | 2.56 |  | 5.2 L/kg |  |  | 
9 | CC(=O)N1CCC(N2C(=O)C(C)(C)c3cnc(Nc4cccnc4)nc32)CC1 | 1.18 | 11 mL/min/kg | 1.4 L/kg | > 60 min | 2100 nM | half-life [4]: > 60 min
10 | CC1(C)C(=O)N([C@H]2CCc3c(O)cccc32)c2nc(Nc3ccccc3)ncc21 |  |  |  |  |  | Drug metabolism [15]: Metabolite_Detected; Drug metabolism [16]: Metabolite_Detected
11 | CC[C@H](C)N1C(=O)C(C)(C)c2cnc(Nc3ccc(CN4CCN(C)CC4)cc3)nc21 | 2.54 | 65 mL/min/kg | 35 L/kg |  |  | 
12 | CC1(C)C(=O)N(C2CCCCC2)c2nc(Nc3cccc(CN4CCOCC4)c3)ncc21 |  |  |  |  |  | Drug metabolism [17]: Metabolite_Detected; Drug metabolism [18]: Metabolite_Detected; Drug metabolism [19]: Metabolite_Detected; Drug metabolism [20]: Metabolite_Detected
13 | CC(=O)N1CCC(N2C(=O)C(C)(C)c3cnc(Nc4ccccc4)nc32)CC1 | 1.6 | 37 mL/min/kg | 1.1 L/kg | 38 min |  | half-life [4]: 30 min
14 | CC[C@H](C)N1C(=O)C2(CC2)c2cnc(Nc3cccnc3)nc21 | 2.3 | 81 mL/min/kg | 2.9 L/kg | 25 min | 60 nM | Drug metabolism [15]: Metabolite_Detected
15 | CC[C@H](C)N1C(=O)C(C)(C)c2cnc(Nc3ccc(CN4CCC(=O)N(C)CC4)cc3)nc21 | 2.68 | 135 mL/min/kg | 3 L/kg |  |  | 
16 | CC[C@H](C)N1C(=O)C(C)(C)c2cnc(Nc3ccc(S(C)(=O)=O)cc3)nc21 | 3.09 | 84 mL/min/kg |  | 26 min | 120 nM | clearance [7]: 3 mL/min/kg; half-life [8]: 80 min
